Laboratory results as given in paper PMC7181660, “A novel specific PERK activator reduces toxicity and extends survival in Huntington's disease models” (Scientific Reports, 2020).
Several values for one entry are separate records, joined by “and”; a condition that tells them apart may be missing. Equal entries are not always repeated.

Assays:
Experiment in all cases: biochemical
Type in all cases: biochemical
panel of 391 kinases [1] = molecular target: panel of 391 kinases (Homo sapiens, UniProt P00533); settings: EGFR, MK-28 1 µM, ATP 1 µM
panel of 391 kinases [2] = molecular target: panel of 391 kinases (Homo sapiens, UniProt Q5S007); settings: LRRK2, MK-28 1 µM, ATP 1 µM
panel of 391 kinases [3] = molecular target: panel of 391 kinases (Homo sapiens, UniProt Q96S53); settings: TESK2, MK-28 1 µM, ATP 1 µM
panel of 391 kinases [4] = molecular target: panel of 391 kinases (Homo sapiens, UniProt Q9UK32); settings: RSK4, MK-28 1 µM, ATP 1 µM
panel of 391 kinases [5] = molecular target: panel of 391 kinases (Homo sapiens, UniProt P07949); settings: RET, MK-28 1 µM, ATP 1 µM
panel of 391 kinases [6] = molecular target: panel of 391 kinases (Homo sapiens, UniProt Q8N568); settings: DCAMKL2, MK-28 1 µM, ATP 1 µM
panel of 391 kinases [7] = molecular target: panel of 391 kinases (Homo sapiens, UniProt Q8N4C8); settings: MINK/MINK1, MK-28 1 µM, ATP 1 µM
panel of 391 kinases [8] = molecular target: panel of 391 kinases (Homo sapiens, UniProt Q92630); settings: DYRK2, MK-28 1 µM, ATP 1 µM
panel of 391 kinases [9] = molecular target: panel of 391 kinases (Homo sapiens, UniProt O15146); settings: MUSK, MK-28 1 µM, ATP 1 µM
panel of 391 kinases [10] = molecular target: panel of 391 kinases (Homo sapiens, UniProt P23443); settings: p70S6K/RPS6KB1, MK-28 1 µM, ATP 1 µM
panel of 391 kinases [11] = molecular target: panel of 391 kinases (Homo sapiens, UniProt Q96RR4); settings: CAMKK2, MK-28 1 µM, ATP 1 µM
panel of 391 kinases [12] = molecular target: panel of 391 kinases (Homo sapiens, UniProt P54760); settings: EPHB4; MK-28 1 µM; ATP 1 µM; read-out: % Enzyme Activity (relative to DMSO controls)
panel of 391 kinases [13] = molecular target: panel of 391 kinases (Homo sapiens, UniProt Q9H2X6); settings: HIPK2, MK-28 1 µM, ATP 1 µM
panel of 391 kinases [14] = settings: for % Enzyme Activity (relative to DMSO controls): MK-28 1 µM, ATP 1 µM
panel of 391 kinases [15] = molecular target: panel of 391 kinases (Homo sapiens, UniProt P52333); settings: JAK3, MK-28 1 µM, ATP 1 µM
panel of 391 kinases [16] = molecular target: panel of 391 kinases (Homo sapiens, UniProt P16234); settings: PDGFRa, MK-28 1 µM, ATP 1 µM
panel of 391 kinases [17] = molecular target: panel of 391 kinases (Homo sapiens, UniProt Q86Z02); settings: HIPK1, MK-28 1 µM, ATP 1 µM
panel of 391 kinases [18] = molecular target: panel of 391 kinases (Homo sapiens, UniProt Q13627); settings: DYRK1/DYRK1A, MK-28 1 µM, ATP 1 µM
panel of 391 kinases [19] = molecular target: panel of 391 kinases (Homo sapiens, UniProt Q9UPE1); settings: MSSK1/STK23, MK-28 1 µM, ATP 1 µM
panel of 391 kinases [20] = molecular target: panel of 391 kinases (Homo sapiens, UniProt O43293); settings: kinase ZIPK/DAPK3, compound at 1 µM, single dose in duplicates, 1 µM ATP
panel of 391 kinases [21] = molecular target: panel of 391 kinases (Homo sapiens, UniProt P36896); settings: ALK4/ACVR1B, MK-28 1 µM, ATP 1 µM
panel of 391 kinases [22] = molecular target: panel of 391 kinases (Homo sapiens, UniProt P53667); settings: LIMK1, MK-28 1 µM, ATP 1 µM
panel of 391 kinases [23] = molecular target: panel of 391 kinases (Homo sapiens, UniProt O75914); settings: PAK3, MK-28 1 µM, ATP 1 µM
panel of 391 kinases [24] = molecular target: panel of 391 kinases (Homo sapiens, UniProt P53355); settings: DAPK1, MK-28 1 µM, ATP 1 µM
panel of 391 kinases [25] = molecular target: panel of 391 kinases (Homo sapiens, UniProt P51817); settings: PRKX, MK-28 1 µM, ATP 1 µM
panel of 391 kinases [26] = molecular target: panel of 391 kinases (Homo sapiens, UniProt P06241); settings: FYN, MK-28 1 µM, ATP 1 µM
[27] = read-out: % Enzyme Activity (relative to DMSO controls)

CN(/N=C\c1ccc(O)c(O)c1)c1nc(-c2ccccc2)cc(-c2ccccc2)n1 [MK-28]
% Enzyme Activity (relative to DMSO controls) (panel of 391 kinases [1]): 102.64% | remaining activity at 1 µM (panel of 391 kinases [1]; [27]): 104% | % Enzyme Activity (relative to DMSO controls) (panel of 391 kinases [2]): 90.69% | remaining activity at 1 µM (panel of 391 kinases [2]; [27]): 92.2% | % Enzyme Activity (relative to DMSO controls) (panel of 391 kinases [3]): 99.48% | remaining activity at 1 µM (panel of 391 kinases [3]; [27]): 101% | % Enzyme Activity (relative to DMSO controls) (panel of 391 kinases [4]): 101.39% | remaining activity at 1 µM (panel of 391 kinases [4]; [27]): 102% | % Enzyme Activity (relative to DMSO controls) (panel of 391 kinases [5]): 98.07% | remaining activity at 1 µM (panel of 391 kinases [5]; [27]): 99.2% | % Enzyme Activity (relative to DMSO controls) (panel of 391 kinases [6]): 121.14% | remaining activity at 1 µM (panel of 391 kinases [6]; [27]): 122% | % Enzyme Activity (relative to DMSO controls) (panel of 391 kinases [7]): 95.98% | remaining activity at 1 µM (panel of 391 kinases [7]; [27]): 98.7% | % Enzyme Activity (relative to DMSO controls) (panel of 391 kinases [8]): 100.55% | remaining activity at 1 µM (panel of 391 kinases [8]; [27]): 101% | % Enzyme Activity (relative to DMSO controls) (panel of 391 kinases [9]): 95.79% | remaining activity at 1 µM (panel of 391 kinases [9]; [27]): 99.1% | % Enzyme Activity (relative to DMSO controls) (panel of 391 kinases [10]): 97.34% | remaining activity at 1 µM (panel of 391 kinases [10]; [27]): 99% | % Enzyme Activity (relative to DMSO controls) (panel of 391 kinases [11]): 93.50% | remaining activity at 1 µM (panel of 391 kinases [11]; [27]): 97.2% | remaining activity at 1 µM (panel of 391 kinases [12]): 92.8% | % Enzyme Activity (relative to DMSO controls) (panel of 391 kinases [13]): 122.10% | remaining activity at 1 µM (panel of 391 kinases [13]; [27]): 124% | number of other hits showing more than 30% increase over control (panel of 391 kinases [14]; 1 μM, 391-kinase panel): 3 | % Enzyme Activity (relative to DMSO controls) (panel of 391 kinases [14]; LYN B): 100.85% and 99.31% | % Enzyme Activity (relative to DMSO controls) (panel of 391 kinases [14]; PKCb2): 90.95% and 90.23% | % Enzyme Activity (relative to DMSO controls) (panel of 391 kinases [14]; PKG1b): 113.02% and 112.43% | % Enzyme Activity (relative to DMSO controls) (panel of 391 kinases [15]): 104.48% | remaining activity at 1 µM (panel of 391 kinases [15]; [27]): 106% | % Enzyme Activity (relative to DMSO controls) (panel of 391 kinases [16]): 97.43% | remaining activity at 1 µM (panel of 391 kinases [16]; [27]): 97.7% | % Enzyme Activity (relative to DMSO controls) (panel of 391 kinases [17]): 100.46% | remaining activity at 1 µM (panel of 391 kinases [17]; [27]): 101% | % Enzyme Activity (relative to DMSO controls) (panel of 391 kinases [18]): 102.59% | remaining activity at 1 µM (panel of 391 kinases [18]; [27]): 103% | % Enzyme Activity (relative to DMSO controls) (panel of 391 kinases [19]): 107.79% | remaining activity at 1 µM (panel of 391 kinases [19]; [27]): 108% | % Enzyme Activity (relative to DMSO controls) (panel of 391 kinases [20]): 79.41% | remaining activity at 1 µM (panel of 391 kinases [20]; [27]): 79.9% | % Enzyme Activity (relative to DMSO controls) (panel of 391 kinases [21]): 89.88% | remaining activity at 1 µM (panel of 391 kinases [21]; [27]): 92.3% | % Enzyme Activity (relative to DMSO controls) (panel of 391 kinases [22]): 93.55% | remaining activity at 1 µM (panel of 391 kinases [22]; [27]): 101% | % Enzyme Activity (relative to DMSO controls) (panel of 391 kinases [23]): 116.60% | remaining activity at 1 µM (panel of 391 kinases [23]; [27]): 117% | % Enzyme Activity (relative to DMSO controls) (panel of 391 kinases [24]): 129.26% | remaining activity at 1 µM (panel of 391 kinases [24]; [27]): 135% | % Enzyme Activity (relative to DMSO controls) (panel of 391 kinases [25]): 101.69% | remaining activity at 1 µM (panel of 391 kinases [25]; [27]): 104% | % Enzyme Activity (relative to DMSO controls) (panel of 391 kinases [26]): 103.36% | remaining activity at 1 µM (panel of 391 kinases [26]; [27]): 103%
